The values below come from PubChem BioAssay (NCI).

One may read the TGI as the concentration giving total growth inhibition. A low value points to greater sensitivity of the cells.

“And” between values parts separate entries of the source, which are not always exact repeats. Equal entries are not always repeated.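 Tested at 5 concentrations; 48 h exposure; 96-well plates; endpoints linearly interpolated, else capped at highest concentration. TGI: concentration producing complete growth inhibition.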

Among the test systems are SN12C renal; SK-MEL-2 melanoma; CAKI-1 renal; U251 CNS; UO-31 renal; SF-268 CNS; EKVX NSCLC; CCRF-CEM leukemia; M19-MEL melanoma; HCT-116 colon.
Assay in all cases: DTP human tumour cell line panel, 48 h

Regarding `COS(=O)CCOC(=O)c1ccccc1SSc1ccccc1C(=O)OCCS(=O)OC` (centres undefined), the total growth inhibition concentration (TGI) is 85.9 µM with SN12C renal; greater than 100 µM in the assay with SK-MEL-2 melanoma; 73.1 µM with CAKI-1 renal; greater than 100 µM in the assay on U251 CNS; 43.5 µM in the assay with UO-31 renal; greater than 100 µM with SF-268 CNS. Further, the concentration for total growth inhibition (TGI) in the assay on EKVX NSCLC, with CCRF-CEM leukemia and in the assay on M19-MEL melanoma was greater than 100 µM throughout.

Take `C=C1C(=O)C23C(CC(OC(C)=O)C1[C@@H]2OC(C)=O)C1(C)C(OC(C)=O)CCC(C)(C)C1C[C@@H]3OC(C)=O` (some centres undefined): the TGI in the assay on SN12C renal came out at 2.8 µM; in the assay with SK-MEL-2 melanoma, 3.37 µM; with CAKI-1 renal, 1.94 µM; in the assay on U251 CNS, 2.95 µM; in the assay with UO-31 renal, 3.19 µM; in the assay with SF-268 CNS, 2.98 µM. Further, the concentration for total growth inhibition (TGI) turned out to be 5.38 µM in the assay with EKVX NSCLC, 2.97 µM in the assay on HCT-116 colon and 3.16 µM in the assay with M19-MEL melanoma.

In the case of `N#CC(/C(=N\NC(N)=S)C(=O)NC1C2CC3CC(C2)CC1C3)c1ccc(Cl)cc1` (centres undefined), the TGI with SN12C renal, with SK-MEL-2 melanoma, in the assay on CAKI-1 renal, in the assay with U251 CNS, in the assay with UO-31 renal and with SF-268 CNS was greater than 100 µM in each case. Further, the TGI in the assay with EKVX NSCLC, with CCRF-CEM leukemia, with HCT-116 colon and in the assay on M19-MEL melanoma was greater than 100 µM throughout.

As to `CN(C)/C(=N/C(=O)Nc1ccccc1)SCc1ccccc1`, the total growth inhibition concentration (TGI) in the assay with SN12C renal, in the assay with SK-MEL-2 melanoma, in the assay on CAKI-1 renal, in the assay with U251 CNS, with UO-31 renal and in the assay on SF-268 CNS was greater than 100 µM throughout. The TGI with EKVX NSCLC, in the assay with CCRF-CEM leukemia and in the assay on M19-MEL melanoma was greater than 100 µM in each case.

For `O=C1CCCc2c(O)ccc(O)c21`, the TGI with SN12C renal, with SK-MEL-2 melanoma, with U251 CNS, in the assay on UO-31 renal, in the assay with SF-268 CNS and with EKVX NSCLC was greater than 100 µM throughout. Further, the figures for the TGI in the assay with CCRF-CEM leukemia, in the assay with HCT-116 colon and with M19-MEL melanoma were 71.7 µM, greater than 100 µM and greater than 100 µM, respectively.

Turning to `CC(C)c1cc2c(O)c(c1)Cc1cc(C(C)C)cc(c1O)Cc1cc(C(C)C)cc(c1O)Cc1cc(C(C)C)cc(c1O)Cc1cc(C(C)C)cc(c1O)Cc1cc(C(C)C)cc(c1O)C2`, the TGI in the assay with SN12C renal, in the assay on SK-MEL-2 melanoma, in the assay on U251 CNS, with UO-31 renal, with SF-268 CNS and with EKVX NSCLC was greater than 100 µM throughout. In addition, the total growth inhibition concentration (TGI) in the assay with CCRF-CEM leukemia, in the assay with HCT-116 colon and with M19-MEL melanoma was greater than 100 µM each time.

As to `C/C(=N\NC(=S)Nc1ccc([N+](=O)[O-])cc1S(=O)(=O)O)c1ccccn1`, the TGI in the assay on SN12C renal is greater than 100 µM; in the assay with SK-MEL-2 melanoma it was 91.3 µM; in the assay on CAKI-1 renal it was greater than 100 µM; with U251 CNS, greater than 100 µM; with UO-31 renal, greater than 100 µM; with SF-268 CNS it was greater than 100 µM. Also, the TGI in the assay on EKVX NSCLC, in the assay with CCRF-CEM leukemia, in the assay on HCT-116 colon and in the assay on M19-MEL melanoma was greater than 100 µM in each case.

For the compound `O=C(O)c1oc2ccc([N+](=O)[O-])c3c2c1CCC3`, the total growth inhibition concentration (TGI) in the assay on SN12C renal, with SK-MEL-2 melanoma, in the assay with CAKI-1 renal, with U251 CNS, in the assay with UO-31 renal and in the assay with SF-268 CNS was greater than 100 µM throughout. The concentration for total growth inhibition (TGI) with EKVX NSCLC, in the assay with HCT-116 colon and in the assay on M19-MEL melanoma was greater than 100 µM in each case.

With `Cc1ccc(S(=O)(=O)ON=C2CC(c3ccccc3)N(C)C(c3ccccc3)C2)cc1` (centres undefined), the total growth inhibition concentration (TGI) in the assay on SN12C renal was 55 µM; with SK-MEL-2 melanoma, 30 µM; with CAKI-1 renal it was 71.5 µM and 44.9 µM; in the assay with U251 CNS, 55.3 µM and 53.6 µM; in the assay on UO-31 renal, 35.3 µM and 49.1 µM; in the assay on SF-268 CNS it was 51.8 µM and 51.1 µM. Also, the TGI in the assay with EKVX NSCLC was greater than 100 µM; with CCRF-CEM leukemia it was greater than 100 µM; with HCT-116 colon, 29.6 µM and 27.5 µM; in the assay on M19-MEL melanoma, 53.5 µM and 56.2 µM.

As for `CCCC/C(C)=N/NC(N)=S`, the TGI in the assay on SN12C renal, in the assay with SK-MEL-2 melanoma, in the assay on CAKI-1 renal, in the assay on U251 CNS, with UO-31 renal and in the assay with SF-268 CNS was greater than 100 µM each time. Also, the TGI in the assay on EKVX NSCLC, in the assay on CCRF-CEM leukemia, in the assay with HCT-116 colon and in the assay on M19-MEL melanoma was greater than 100 µM throughout.

Take `c1ccc(CN(Cc2ccccn2)Cn2cccn2)nc1`: the TGI with SN12C renal, with SK-MEL-2 melanoma, in the assay with CAKI-1 renal, in the assay with U251 CNS, with UO-31 renal and in the assay with SF-268 CNS was greater than 100 µM throughout. Also, the concentration for total growth inhibition (TGI) in the assay on EKVX NSCLC is greater than 100 µM; with CCRF-CEM leukemia, greater than 100 µM; in the assay with HCT-116 colon, 63.7 µM; with M19-MEL melanoma it was greater than 100 µM.

On to `CC(=O)Nc1[nH]c(=O)[nH]c(=O)c1N(C(C)=O)C(C)=O`, for which the TGI in the assay with SN12C renal, in the assay with SK-MEL-2 melanoma, with CAKI-1 renal, in the assay on U251 CNS, in the assay on UO-31 renal and with SF-268 CNS was greater than 100 µM each time. The TGI with EKVX NSCLC, in the assay on CCRF-CEM leukemia, in the assay with HCT-116 colon and in the assay on M19-MEL melanoma was greater than 100 µM throughout.

In the case of `Clc1ccc(CCN2CCOCC2)c(Cl)c1`, the TGI in the assay with SN12C renal, in the assay with SK-MEL-2 melanoma, in the assay with CAKI-1 renal, with U251 CNS, with UO-31 renal and in the assay on SF-268 CNS was greater than 100 µM each time. Besides, the TGI with EKVX NSCLC, with CCRF-CEM leukemia, in the assay with HCT-116 colon and in the assay with M19-MEL melanoma was greater than 100 µM in each case.

As for `OCC1CC2CC1C1(C2)OCCO1` (centres undefined), the total growth inhibition concentration (TGI) with SN12C renal, in the assay on SK-MEL-2 melanoma, in the assay with CAKI-1 renal, with U251 CNS, in the assay on UO-31 renal and in the assay on SF-268 CNS was greater than 100 µM each time. For the same compound, the TGI in the assay on EKVX NSCLC, in the assay on CCRF-CEM leukemia, in the assay on HCT-116 colon and in the assay with M19-MEL melanoma was greater than 100 µM in each case.
